# Measurements from patent US11726079B2, “Lighting systems and methods of using lighting systems for in vitro potency assay for Photofrin” (Concordia Laboratories, Inc., priority 2012, dated 2023).
# Tested on: A549 human lung carcinoma cells
# Test: Chemotherapeutic drugs as possible positive control, 24 hour incubation with XTT endpoint
# Type: cell-based
# Conditions: data not shown
# Protocol: The broadly active chemotherapeutics drugs SN-38 (20 μM top dose), the active metabolite of irinotecan, carboplatin (7.5 mM top dose), and paclitaxel (20 μM top dose) are tested to determine if sufficient cell killing can be achieved under the anticipated assay conditions, i.e., 24 hour incubation with XTT endpoint.
SMILES,cell killing (20 μM top dose),cell killing (7.5 mM top dose)
CCc1c2c(nc3ccc(O)cc13)-c1cc3c(c(=O)n1C2)COC(=O)[C@]3(O)CC [SN-38],None of the drugs produce sufficient cell killing,–
N.N.O=C([O-])C1(C(=O)[O-])CCC1.[Pt+2] [carboplatin],–,None of the drugs produce sufficient cell killing
CC(=O)O[C@H]1C(=O)[C@@]2(C)[C@H]([C@H](OC(=O)c3ccccc3)[C@]3(O)C[C@H](OC(=O)[C@H](O)[C@@H](NC(=O)c4ccccc4)c4ccccc4)C(C)=C1C3(C)C)[C@]1(OC(C)=O)CO[C@@H]1C[C@@H]2O [paclitaxel],None of the drugs produce sufficient cell killing,–
